In patent US20260109707A1, “HETEROBIFUNCTIONAL COMPOUNDS AND METHODS OF TREATING DISEASE” (Halda Therapeutics OpCo. Inc., priority 2022, published 2026):
Where two headings read alike, the source gives them in different places.

How the values were obtained:
[1] = tested on: T-Rex 293 cell line SC3 cells lacking increased expression of androgen receptor protein; test: Cellular growth inhibition assay, T-Rex 293 SC3 cells without doxycycline (CellTiter-Glo, 72 hours); assay type: cell-based; conditions: T-Rex 293 cell line SC3 cells not exposed to doxycycline (lacking increased androgen receptor expression)
How it was run: (§1)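 Growth inhibition is measured in an inducible AR-expressing T-Rex 293 clone, SC3, cultured with or without 10 ng/mL doxycycline in hormone-depleted medium. Test compounds are applied for 72 hours. GI50 values derive from CellTiter-Glo 2.0 signal fitted by four-parameter regression.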

VCaP cells = test: Cellular growth inhibition assay for VCaP cells (CellTiter-Glo, 72 hours); assay type: cell-based, human
How it was run: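 Luminescent viability signal after 72 h of compound exposure gave GI50 values by four-parameter nonlinear regression. Compounds were added in 0.5% DMSO to cells plated 24 h earlier at 5000/well in DMEM containing 10% FBS.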

[2] = tested on: T-Rex 293 cell line SC3 cells having increased expression of androgen receptor protein due to exposure to doxycycline; test: Cellular growth inhibition assay, T-Rex 293 SC3 cells with doxycycline (CellTiter-Glo, 72 hours); assay type: cell-based; conditions: T-Rex 293 SC3 cells with increased androgen receptor expression due to doxycycline (10 ng/mL)
How it was run: as §1

Compound | GI50 ([1]; 72 h) | GI50 (VCaP cells) | GI50 ([2]; 72 h) | GI50 [1] | GI50 [2] | GI50 (VCaP cells; Homo sapiens, VCaP, 72 h)
Cc1sc2c(c1C)C(c1ccc(C3CCC4(CCN(c5ccc(C(=O)N[C@H]6CC[C@H](Oc7ccc(C#N)c(Cl)c7)CC6)nn5)CC4)C3)cc1)=N[C@@H](C)c1nnc(C)n1-2 (stereo partly drawn) [I-496] | > 3000 nM | < 500 nM | < 500 nM |  |  | 
Cc1sc2c(c1C)C(c1ccc(C3CCC4(CCN(c5ccc(C(=O)N[C@H]6CC[C@H](Oc7ccc(C#N)c(Cl)c7)CC6)nn5)CC4)C3)cc1)=N[C@@H](C)c1nnc(C)n1-2 (stereo partly drawn) [I-497] |  | 1500 to 3000 nM |  | > 3000 nM | < 500 nM | 
Cc1sc2c(c1C)C(c1ccc(N3CCN(CC4CCN(c5ccc(C(=O)N[C@H]6CC[C@H](Oc7ccc(C#N)c(Cl)c7)CC6)nn5)CC4)CC3)cc1)=N[C@@H](C)c1nnc(C)n1-2 [I-498] | > 3000 nM |  | < 500 nM |  |  | < 500 nM
Cc1sc2c(c1C)C(c1ccc(N3CCC(CN4CCN(c5ccc(C(=O)N[C@H]6CC[C@H](Oc7ccc(C#N)c(Cl)c7)CC6)nn5)CC4)CC3)cc1)=N[C@@H](C)c1nnc(C)n1-2 [I-499] | > 3000 nM |  | < 500 nM |  |  | < 500 nM
Cc1sc2c(c1C)C(c1ccc(N3CCC(CC4CCN(c5ccc(C(=O)N[C@H]6CC[C@H](Oc7ccc(C#N)c(Cl)c7)CC6)nn5)CC4)CC3)cc1)=N[C@@H](C)c1nnc(C)n1-2 [I-500] | > 3000 nM |  | < 500 nM |  |  | > 3000 nM
Cc1sc2c(c1C)C(c1ccc(N3CCC4(CCCN(c5ccc(C(=O)N[C@H]6CC[C@H](Oc7ccc(C#N)c(Cl)c7)CC6)nn5)C4)CC3)cn1)=NC1(CC1)c1nnc(C)n1-2 [I-501] | > 3000 nM |  | < 500 nM |  |  | < 500 nM
Cc1sc2c(c1C)C(c1ccc(N3CCC4(CC3)CCN(c3ccc(C(=O)N[C@H]5CC[C@H](Oc6ccc(C#N)c(Cl)c6)CC5)nn3)C4)cn1)=NC1(CC1)c1nnc(C)n1-2 [I-502] | > 3000 nM |  | < 500 nM |  |  | > 3000 nM
Cc1sc2c(c1C)C(c1ccc(N3CC(C4CCN(c5ccc(C(=O)N[C@H]6CC[C@H](Oc7ccc(C#N)c(Cl)c7)CC6)nn5)CC4)C3)nc1)=NC1(CC1)c1nnc(C)n1-2 [I-503] |  | 1500 to 3000 nM |  | > 3000 nM | < 500 nM | 
Cc1sc2c(c1C)C(c1ccc(OC3CC4(C3)CC3(CCN(c5ccc(C(=O)N[C@H]6CC[C@H](Oc7ccc(C#N)c(Cl)c7)CC6)nn5)CC3)C4)nc1)=NC1(CC1)c1nnc(C)n1-2 [I-504] | 500 to 1500 nM |  | < 500 nM |  |  | < 500 nM
CC1=NN=C2C1c1sc(C)c(C)c1C(c1ccc(N3C[C@@H]4CN(c5ccc(C(=O)N[C@H]6CC[C@H](Oc7ccc(C#N)c(Cl)c7)CC6)nn5)C[C@@H]4C3)cc1)=NC21CC1 (stereo partly drawn) [I-505] | > 3000 nM |  | < 500 nM |  |  | < 500 nM
Cc1sc2c(c1C)C(c1ccc(OC3CCC4(C3)CN(c3ccc(C(=O)N[C@H]5CC[C@H](Oc6ccc(C#N)c(Cl)c6)CC5)nn3)CCO4)cc1)=NC1(CC1)c1nnc(C)n1-2 (stereo partly drawn) [I-506] | > 3000 nM | 1500 to 3000 nM | < 500 nM |  |  | 
Cc1sc2c(c1C)C(c1ccc(OC3CCC4(C3)CN(c3ccc(C(=O)N[C@H]5CC[C@H](Oc6ccc(C#N)c(Cl)c6)CC5)nn3)CCO4)cc1)=NC1(CC1)c1nnc(C)n1-2 (stereo partly drawn) [I-507] |  | > 3000 nM |  | > 3000 nM | < 500 nM | 
Cc1sc2c(c1C)C(c1ccc(OC3CCC4(C3)CN(c3ccc(C(=O)N[C@H]5CC[C@H](Oc6ccc(C#N)c(Cl)c6)CC5)nn3)CCO4)cc1)=NC1(CC1)c1nnc(C)n1-2 (stereo partly drawn) [I-508] |  | < 500 nM |  | > 3000 nM | < 500 nM | 
Cc1sc2c(c1C)C(c1ccc(COC3CCC4(CCCN(c5ccc(C(=O)N[C@H]6CC[C@H](Oc7ccc(C#N)c(Cl)c7)CC6)nn5)C4)C3)cc1)=NC1(CC1)c1nnc(C)n1-2 (stereo partly drawn) [I-509] |  |  |  | > 3000 nM | < 500 nM | > 3000 nM
CC[C@@H]1N=C(c2ccc(N3CCC4(CCCN(c5ccc(C(=O)N[C@H]6CC[C@H](Oc7ccc(C#N)c(Cl)c7)CC6)nn5)C4)CC3)cc2)c2c(sc(C)c2C)-n2c(C)nnc21 [I-510] | < 500 nM |  | < 500 nM |  |  | > 3000 nM
Cc1sc2c(c1C)C(c1ccc(N3C[C@@H]4CN(c5ccc(C(=O)N[C@H]6CC[C@H](Oc7ccc(C#N)c(Cl)c7)CC6)nn5)C[C@@H]4C3)cc1)=N[C@@H](C)c1nnc(C)n1-2 [I-511] | < 500 nM |  | < 500 nM |  |  | < 500 nM

Compound | GI50 ([1]; 72 h) | GI50 (VCaP cells) | GI50 ([2]; 72 h) | GI50 [1] | GI50 [2] | GI50 (VCaP cells; Homo sapiens, VCaP, 72 h)
Cc1sc2c(c1C)C(c1ccc(COC3CCC4(CCCN(c5ccc(C(=O)N[C@H]6CC[C@H](Oc7ccc(C#N)c(Cl)c7)CC6)nn5)C4)C3)cc1)=N[C@@H](C)c1nnc(C)n1-2 (stereo partly drawn) [I-513] | < 500 nM | 500 to 1500 nM |  |  | < 500 nM | 
Cc1sc2c(c1C)C(c1ccc(COC3CCC4(CCCN(c5ccc(C(=O)N[C@H]6CC[C@H](Oc7ccc(C#N)c(Cl)c7)CC6)nn5)C4)C3)cc1)=N[C@@H](C)c1nnc(C)n1-2 (stereo partly drawn) [I-514] |  | 1500 to 3000 nM | < 500 nM | < 500 nM |  | 
Cc1sc2c(c1C)C(c1ccc(N3CC4(CCC(Cc5ccc(C(=O)N[C@H]6CC[C@H](Oc7ccc(C#N)c(Cl)c7)CC6)nn5)CC4)C3)cc1)=N[C@@H](Cc1ncco1)c1nnc(C)n1-2 [I-515] | > 3000 nM |  | < 500 nM |  |  | < 500 nM
C#Cc1ccc(O[C@H]2CC[C@H](NC(=O)c3ccc(N4CCC(C5CN(c6ccc(C7=NC8(CC8)c8nnc(C)n8-c8sc(C)c(C)c87)nc6)C5)CC4)nn3)CC2)cc1Cl [I-516] | > 3000 nM |  | < 500 nM |  |  | > 3000 nM
Cc1sc2c(c1C)C(c1ccc(C3CCC4(CC3)CCN(c3ccc(C(=O)N[C@H]5CC[C@H](Oc6ccc(C#N)c(Cl)c6)CC5)nn3)C4)cc1)=NC1(CC1)c1nnc(C)n1-2 (stereo partly drawn) [I-517] | > 3000 nM | > 3000 nM | < 500 nM |  |  | 
Cc1sc2c(c1C)C(c1ccc(C3CCC4(CC3)CCN(c3ccc(C(=O)N[C@H]5CC[C@H](Oc6ccc(C#N)c(Cl)c6)CC5)nn3)C4)cc1)=NC1(CC1)c1nnc(C)n1-2 (stereo partly drawn) [I-518] |  | < 500 nM |  | > 3000 nM | < 500 nM | 
Cc1sc2c(c1C)C(c1ccc(C3CCC4(CCN(c5ccc(C(=O)N[C@H]6CC[C@H](Oc7ccc(C#N)c(Cl)c7)CC6)nn5)CC4)C3)cc1)=NC1(CC1)c1nnc(C)n1-2 (stereo partly drawn) [I-519] | > 3000 nM |  | < 500 nM |  |  | < 500 nM
Cc1sc2c(c1C)C(c1ccc(C3CCC4(CCN(c5ccc(C(=O)N[C@H]6CC[C@H](Oc7ccc(C#N)c(Cl)c7)CC6)nn5)CC4)C3)cc1)=NC1(CC1)c1nnc(C)n1-2 (stereo partly drawn) [I-520] |  | < 500 nM |  | > 3000 nM | < 500 nM | 
Cc1sc2c(c1C)C(c1ccc(N3CCC4(CCN(c5ccc(C(=O)N[C@H]6CC[C@H](Oc7ccc(C#N)c(Cl)c7)CC6)nn5)C4)C3)cc1)=NC1(CC1)c1nnc(C)n1-2 (stereo partly drawn) [I-521] | < 500 nM | 1500 to 3000 nM | < 500 nM |  |  | 
Cc1sc2c(c1C)C(c1ccc(N3CCC4(CCN(c5ccc(C(=O)N[C@H]6CC[C@H](Oc7ccc(C#N)c(Cl)c7)CC6)nn5)C4)C3)cc1)=NC1(CC1)c1nnc(C)n1-2 (stereo partly drawn) [I-522] |  | 500 to 1500 nM |  | < 500 nM | < 500 nM | 
Cc1sc2c(c1C)C(c1ccc(OC3CCC4(CCCN(c5ccc(C(=O)N[C@H]6CC[C@H](Oc7ccc(C#N)c(Cl)c7)CC6)nn5)C4)C3)cc1)=NC1(CC1)c1nnc(C)n1-2 (stereo partly drawn) [I-523] |  | > 3000 nM | < 500 nM | > 3000 nM |  | 
Cc1sc2c(c1C)C(c1ccc(OC3CCC4(CCCN(c5ccc(C(=O)N[C@H]6CC[C@H](Oc7ccc(C#N)c(Cl)c7)CC6)nn5)C4)C3)cc1)=NC1(CC1)c1nnc(C)n1-2 (stereo partly drawn) [I-524] |  | > 3000 nM |  | > 3000 nM | < 500 nM | 
Cc1sc2c(c1C)C(c1ccc(OC3CCC4(CCCN(c5ccc(C(=O)N[C@H]6CC[C@H](Oc7ccc(C#N)c(Cl)c7)CC6)nn5)C4)C3)cc1)=NC1(CC1)c1nnc(C)n1-2 (stereo partly drawn) [I-525] |  | < 500 nM |  | > 3000 nM | < 500 nM | 
Cc1sc2c(c1C)C(c1ccc(OC3CCC4(CCCN(c5ccc(C(=O)N[C@H]6CC[C@H](Oc7ccc(C#N)c(Cl)c7)CC6)nn5)C4)C3)cc1)=NC1(CC1)c1nnc(C)n1-2 (stereo partly drawn) [I-526] |  | < 500 nM |  | 500 to 1500 nM | < 500 nM | 
Cc1sc2c(c1C)C(c1ccc(CC3CCC4(C3)CN(c3ccc(C(=O)N[C@H]5CC[C@H](Oc6ccc(C#N)c(Cl)c6)CC5)nn3)CCO4)cc1)=NC1(CC1)c1nnc(C)n1-2 (stereo partly drawn) [I-527] | > 3000 nM |  | < 500 nM |  |  | 1500 to 3000 nM
